Data taken from the supplement of paper PMC4858399.
Where a name gives a salt, the structure may show the parent alone.

Key:
[1] = tested on: Caenorhabditis elegans N2; assay: lowest effective concentration for larval growth inhibition (size below effect threshold); higher = less potent; settings: exposure time 48 h
Method in brief: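 C. elegans N2 L1 larvae (50 per 96-well) were grown 48 h at 20°C in K-medium with killed bacteria, 1% DMSO and 0.5, 1, 5, 10, 50, 100 or 200 µM chemical. The Biosort measured per-worm extinction as size, and these were log-transformed into well means. The lowest effective concentration is the first dose where the plate-adjusted mean size drops under the 5.665 threshold and stays under it at higher doses.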

[2] = tested on: Caenorhabditis elegans N2; assay: mean nematode size ln(EXT) after 48 h, plate-adjusted (DMSO control set to 6) (ln(EXT), control-adjusted); higher = larger nematodes / less growth inhibition; settings: exposure time 48 h
Method in brief: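 Synchronised C. elegans N2 L1 larvae (50 per well, 4–6 wells per treatment) were grown for 48 h at 20°C in K-medium with killed OP50, 1% DMSO and 0.5–200 µM chemical. The Biosort measured each worm's extinction, and debris was removed by a growth model. Values were natural-logged and averaged per well. Mean size was then plate-adjusted by subtracting the vehicle control mean and adding 6.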

| SMILES | lowest effective concentration [1] | mean nematode size ln(EXT) (ln) ([2]; 0.5 µM) | mean nematode size ln(EXT) (ln) ([2]; 1 µM) | mean nematode size ln(EXT) (ln) ([2]; 5 µM) | mean nematode size ln(EXT) (ln) ([2]; 10 µM) | mean nematode size ln(EXT) (ln) ([2]; 50 µM) | mean nematode size ln(EXT) (ln) ([2]; 100 µM) | mean nematode size ln(EXT) (ln) ([2]; 200 µM) |
| --- | --- | --- | --- | --- | --- | --- | --- | --- |
| Oc1cccc(O)c1 [Resorcinol] | > 200 µM | 5.81 | 5.86 | 5.94 | 5.84 | 5.88 | 5.84 | 5.78 |
| O=[N+]([O-])C(CO)(CO)CO [Tris(hydroxymethyl)nitromethane] | > 200 µM | 5.91 | 5.9 | 5.92 | 5.75 | 5.92 | 5.89 | 5.75 |
| C/C=C/C=C/C(=O)O [Sorbic acid] | > 200 µM | 5.84 | 5.83 | 5.82 | 5.95 | 5.89 | 5.86 | 5.7 |
| N#CCCCCC#N [Hexanedinitrile] | > 200 µM | 5.89 | 5.82 | 5.87 | 5.81 | 5.96 | 5.75 | 5.8 |
| CCCC(=O)O [Butanoic acid] | > 200 µM | 5.86 | 5.86 | 5.86 | 5.86 | 5.94 | 6 | 5.71 |
| CN1CSC(=S)N(C)C1 [Dazomet] | > 200 µM | 5.73 | 5.62 | 5.46 | 5.71 | 5.78 | 5.55 | 5.83 |
| CCCCCCOC(=O)CC(CC(=O)OCCCCCC)(OC(=O)CCC)C(=O)OCCCCCC [N-Butyryl tri-N-hexyl citrate] | > 200 µM | 5.93 | 5.96 | 5.91 | 5.98 | 6.15 | 5.75 | 5.83 |
| CCOCCOCCO [Diethylene glycol monoethyl ether] | > 200 µM | 6.02 | 6.03 | 6.07 | 6.05 | 6.03 | 6.06 | 5.76 |
| O=C(O)c1cccc(Oc2ccccc2)c1 [3-Phenoxybenzoic acid] | > 200 µM | 5.87 | 5.85 | 5.89 | 5.87 | 5.83 | 5.83 | 5.91 |
| O=C(O)c1cc(/N=N/c2ccc(S(=O)(=O)Nc3ccccn3)cc2)ccc1O [Sulfasalazine] | > 200 µM | 5.85 | 5.91 | 5.87 | 5.87 | 5.92 | 5.9 | 5.94 |
| Cn1c(-c2ccccc2)cc(-c2ccccc2)[n+]1C [Difenzoquat metilsulfate] | > 200 µM | 6.06 | 6.04 | 6.06 | 6.07 | 5.99 | 6.1 | 5.9 |
| CCOc1nc(F)cc2nc(S(=O)(=O)Nc3c(Cl)cccc3Cl)nn12 [Diclosulam] | > 200 µM | 6.11 | 6.13 | 6.09 | 6.14 | 6.15 | 6.17 | 5.79 |
| COC(=O)c1ccccc1C(=O)OC [Dimethyl phthalate] | > 200 µM | 5.82 | 5.99 | 6.07 | 6.01 | 6.18 | 6.01 | 5.98 |
| O=C(O)c1ccccc1C(=O)OCc1ccccc1 [Benzyl hydrogen phthalate] | > 200 µM | 5.72 | 5.73 | 5.79 | 5.84 | 5.73 | 5.67 | 5.74 |
